# Reference: US20200031858A1, “AVERMECTIN DERIVATIVES AS FXR MODULATORS” (Hepagene Therapeutics, Inc., priority 2017, published 2020)
# Target: T1, FXR-LBD (Farnesoid X Receptor) (Homo sapiens, UniProt Q96RI1)
# T1 construct: Add 5 μl of 4×FXR-LBD to 384 well assay plates; purchased
# T1 sequence (Q96RI1 262-486 limits assumed): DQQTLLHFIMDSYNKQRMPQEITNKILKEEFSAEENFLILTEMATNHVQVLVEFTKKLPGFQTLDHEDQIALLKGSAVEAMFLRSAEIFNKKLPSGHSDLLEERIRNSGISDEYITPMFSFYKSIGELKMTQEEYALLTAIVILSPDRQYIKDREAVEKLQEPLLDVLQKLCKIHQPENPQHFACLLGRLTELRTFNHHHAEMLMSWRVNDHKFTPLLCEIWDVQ
# Assay: LanthaScreen TR-FRET Farnesoid X Receptor Coactivator Assay
# Type: biochemical
# Conditions: TR-FRET ratio 520 nm/495 nm; 10 doses, 3-fold serial dilution; GW4064 as positive control
# Description: The compounds of the present technology may be assayed using the following procedure and will be shown to have FXR binding activity.
# LanthaScreen™ TR-FRET Farnesoid X Receptor Coactivator Assay
# GW4064 as a positive control
# • 1. All of compounds were 3-fold serial diluted from 10 mM stock for 10 doses in DMSO. • 2. Dilute each 100× agonist serial dilution to 2× using Complete Coregulator buffer G. • 3. Transfer 10 μl of each of the 2× agonist serial dilutions to 384 well assay plates. • 4. Add 5 μl of 4×FXR-LBD to 384 well assay plates. • 5. Add 5 μl of 4× peptide/4× antibody solution to 384 well assay plates. • 6. Incubate at room temperature protected from light. • 7. Read the plate at wavelengths of 520 nm and 495 nm on Envision 2104 plate reader. • 8. Calculate the TR-FRET ratio by dividing the emission signal at 520 nm by the emission signal at 495 nm. • 9. Calculate EC50 by fitting % Activity values and log of compound concentrations to nonlinear regression (dose response−variable slope) with Graphpad 5.0.
row,EC50 [nM],SMILES
1,10 to 100,CO[C@H]1C[C@H](O[C@H]2[C@H](C)O[C@@H](O[C@@H]3/C(C)=C/C[C@@H]4C[C@@H](C[C@]5(C=C[C@H](C)[C@@H](C6CCCCC6)O5)O4)OC(=O)[C@@H]4C=C(C)C(=NO)[C@H]5OC/C(=C\C=C\[C@@H]3C)[C@]54O)C[C@@H]2OC)O[C@@H](C)[C@@H]1O [Compound 31]
2,101 to 300,CO[C@H]1C[C@H](O[C@@H]2/C(C)=C/C[C@@H]3C[C@@H](C[C@]4(C=C[C@H](C)[C@@H](C5CCCCC5)O4)O3)OC(=O)[C@@H]3C=C(C)[C@@H](O)[C@H]4OC/C(=C\C=C\[C@@H]2C)[C@]43O)O[C@@H](C)[C@@H]1O [Compound 32]
3,301 to 1000,CON=C1C(C)=C[C@H]2C(=O)O[C@H]3C[C@@H](C/C=C(\C)[C@@H](O[C@H]4C[C@H](OC)[C@@H](O)[C@H](C)O4)[C@@H](C)/C=C/C=C4\CO[C@H]1[C@@]42O)O[C@@]1(C=C[C@H](C)[C@@H](C2CCCCC2)O1)C3 [Compound 35]

row,SMILES,EC50 [nM]
1,CO[C@H]1C[C@H](O[C@@H]2/C(C)=C/C[C@@H]3C[C@@H](C[C@]4(C=C[C@H](C)[C@@H](C5CCCCC5)O4)O3)OC(=O)[C@@H]3C=C(C)C(=NO)[C@H]4OC/C(=C\C=C\[C@@H]2C)[C@]43O)O[C@@H](C)[C@@H]1O [Compound 33],10 to 100
